The text below walks through data of ChEMBL document CHEMBL1151018, “Studies On uro'gen III synthase with modified bilanes” (Bioorg Med Chem Lett, 1994).

Activity calls are given as the source filed them. No cut-off for these calls is given here.

One assay concerns the target T1, Uroporphyrinogen-III synthase (Homo sapiens) (UniProt P10746).
T1 sequence (whole entry): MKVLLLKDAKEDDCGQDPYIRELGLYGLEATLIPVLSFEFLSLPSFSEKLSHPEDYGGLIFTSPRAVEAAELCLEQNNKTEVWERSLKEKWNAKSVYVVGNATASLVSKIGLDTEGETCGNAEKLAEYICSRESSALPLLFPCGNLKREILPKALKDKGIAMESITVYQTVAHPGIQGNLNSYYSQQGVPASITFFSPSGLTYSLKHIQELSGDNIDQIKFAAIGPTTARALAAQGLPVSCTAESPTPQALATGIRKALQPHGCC
The experiment in a line: Compound was tested for its activity as substrate of Uroporphyrinogen III synthase; Yes.
For `O=C(O)CCc1c[nH]c(Cc2[nH]c(Cc3[nH]c(Cc4[nH]c(CO)c(CC(=O)O)c4CCC(=O)O)c(CC(=O)O)c3CCC(=O)O)c(CC(=O)O)c2CCC(=O)O)c1CC(=O)O`, the result was Active. Take `CCc1c[nH]c(Cc2[nH]c(Cc3[nH]c(Cc4[nH]c(CO)c(CC(=O)O)c4CCC(=O)O)c(CC(=O)O)c3CCC(=O)O)c(CC(=O)O)c2CCC(=O)O)c1CC(=O)O`: the result was Active. Same read-out and setting: to `O=C(O)CCCc1c[nH]c(Cc2[nH]c(Cc3[nH]c(Cc4[nH]c(CO)c(CC(=O)O)c4CCC(=O)O)c(CC(=O)O)c3CCC(=O)O)c(CC(=O)O)c2CCC(=O)O)c1CC(=O)O` belongs “Active”; to `O=C(O)CCc1c(CC(=O)O)c[nH]c1Cc1[nH]c(Cc2[nH]c(Cc3[nH]c(CO)c(CC(=O)O)c3CCC(=O)O)c(CC(=O)O)c2CCC(=O)O)c(CC(=O)O)c1CCC(=O)O`, “Active”; to `O=C(O)CCc1c[nH]c(Cc2[nH]c(Cc3[nH]c(Cc4[nH]c(CO)c(CC(=O)O)c4CCC(=O)O)c(CC(=O)O)c3CCC(=O)O)c(CCC(=O)O)c2CC(=O)O)c1CC(=O)O`, “Active”.

The next assay concerns the target T1, Uroporphyrinogen-III synthase (Homo sapiens). The assay is described as follows: Compound was tested for its activity as substrate of Uroporphyrinogen III synthase; Poor substrate.
As to `Cc1c(CCC(=O)O)c[nH]c1Cc1[nH]c(Cc2[nH]c(Cc3[nH]c(CO)c(CC(=O)O)c3CCC(=O)O)c(CC(=O)O)c2CCC(=O)O)c(CC(=O)O)c1CCC(=O)O`, the Activity entry was “(+)”.

For a further assay the target is unchanged. The assay is described as follows: Compound was tested for its activity as inhibitor of Uroporphyrinogen III synthase; Yes.
On to `Cc1[nH]c(Cc2[nH]c(Cc3[nH]c(Cc4[nH]c(CO)c(CC(=O)O)c4CCC(=O)O)c(CC(=O)O)c3CCC(=O)O)c(CC(=O)O)c2CCC(=O)O)c(CC(=O)O)c1CCC(=O)O`, for which the outcome was Active. In the case of `O=C(O)CCc1c(Br)[nH]c(Cc2[nH]c(Cc3[nH]c(Cc4[nH]c(CO)c(CC(=O)O)c4CCC(=O)O)c(CC(=O)O)c3CCC(=O)O)c(CC(=O)O)c2CCC(=O)O)c1CC(=O)O`, the outcome was Active. Still for that read-out and setting: to `N#Cc1[nH]c(Cc2[nH]c(Cc3[nH]c(Cc4[nH]c(CO)c(CC(=O)O)c4CCC(=O)O)c(CC(=O)O)c3CCC(=O)O)c(CC(=O)O)c2CCC(=O)O)c(CC(=O)O)c1CCC(=O)O` belongs “Active”; to `Cn1c(Cc2[nH]cc(CCC(=O)O)c2CC(=O)O)c(CCC(=O)O)c(CC(=O)O)c1Cc1[nH]c(Cc2[nH]c(CO)c(CC(=O)O)c2CCC(=O)O)c(CC(=O)O)c1CCC(=O)O`, “Active”. As to `CC(O)c1[nH]c(Cc2[nH]c(Cc3[nH]c(Cc4[nH]cc(CCC(=O)O)c4CC(=O)O)c(CCC(=O)O)c3CC(=O)O)c(CCC(=O)O)c2CC(=O)O)c(CCC(=O)O)c1CC(=O)O` (configuration not stated), the result was Active.

For the compound `Cn1cc(CCC(=O)O)c(CC(=O)O)c1Cc1[nH]c(Cc2[nH]c(Cc3[nH]c(CO)c(CC(=O)O)c3CCC(=O)O)c(CC(=O)O)c2CCC(=O)O)c(CC(=O)O)c1CCC(=O)O`, the outcome was Active.
